Legend:
[1] = target: T1, Coagulation factor VII (Homo sapiens, UniProt P08709); assay: Inhibition of human TF/FVIIa complex by chromogenic assay
T1 sequence (P08709 whole entry): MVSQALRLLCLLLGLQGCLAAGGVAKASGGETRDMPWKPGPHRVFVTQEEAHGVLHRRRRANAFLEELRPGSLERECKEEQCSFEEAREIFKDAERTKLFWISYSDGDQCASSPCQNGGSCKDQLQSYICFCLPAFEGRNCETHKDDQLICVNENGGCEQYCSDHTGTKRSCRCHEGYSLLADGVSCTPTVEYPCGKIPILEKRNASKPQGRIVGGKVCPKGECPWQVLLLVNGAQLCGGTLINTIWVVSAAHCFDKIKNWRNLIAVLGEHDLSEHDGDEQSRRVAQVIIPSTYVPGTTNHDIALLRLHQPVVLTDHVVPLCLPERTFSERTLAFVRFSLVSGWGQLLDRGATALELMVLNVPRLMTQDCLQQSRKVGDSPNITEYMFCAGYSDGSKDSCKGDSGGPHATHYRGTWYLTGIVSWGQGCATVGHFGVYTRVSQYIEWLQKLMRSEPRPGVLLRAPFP

[2] = target: Prothrombin (Homo sapiens, UniProt P00734); assay: Inhibition of human thrombin by chromogenic assay
[3] = tested on: Plasma; assay: Anticoagulant potency in human citreated plasma assessed as concentration required to double activated partial thromboplastin time; format: functional
[4] = target: Coagulation factor X (Homo sapiens, UniProt P00742); assay: Inhibition of human Fxa by chromogenic assay
[5] = tested on: Plasma; assay: Anticoagulant potency in human citreated plasma assessed as concentration required to double prothrombin time; format: functional
[6] = target: Trypsin (Homo sapiens, UniProt P07477+P07478+P35030); assay: Inhibition of human trypsin by chromogenic assay; format: protein assay
[7] = Plasma concentration in ICR mouse at 300 mg/kg, po after 2 hrs by TF/FVIIa inhibition assay; format: ADME, organism-based; set-up: dose 300 mg/kg, route oral
[8] = Plasma concentration in ICR mouse at 300 mg/kg, po after 0.5 hrs by TF/FVIIa inhibition assay; format: ADME, organism-based; set-up: dose 300 mg/kg, route oral
[9] = Plasma concentration in ICR mouse at 100 mg/kg, po after 2 hrs by TF/FVIIa inhibition assay; format: ADME, organism-based; set-up: dose 100 mg/kg, route oral
[10] = Plasma concentration in ICR mouse at 100 mg/kg, po after 0.5 hrs by TF/FVIIa inhibition assay; format: ADME, organism-based; set-up: dose 100 mg/kg, route oral
[11] = tested on: Cynomolgus monkey; assay: Effect on activated partial thromboplastin time in cynomolgus monkey citreated blood at 30 mg/kg, iv; format: functional, Macaca fascicularis
[12] = tested on: Cynomolgus monkey; assay: Prolongation of prothrombin time in cynomolgus monkey citreated blood at 3 mg/kg, iv; format: functional, Macaca fascicularis
[13] = tested on: Cynomolgus monkey; assay: Prolongation of prothrombin time in cynomolgus monkey citreated blood at 30 mg/kg, iv; format: functional, Macaca fascicularis
[14] = tested on: Cynomolgus monkey; assay: Effect on bleeding time in cynomolgus monkey at 30 mg/kg, iv; format: functional, Macaca fascicularis
[15] = tested on: Cynomolgus monkey; assay: Prolongation of prothrombin time in cynomolgus monkey citreated blood at 10 mg/kg, iv; format: functional, Macaca fascicularis
[16] = tested on: Cynomolgus monkey; assay: Effect on activated partial thromboplastin time in cynomolgus monkey citreated blood at 10 mg/kg, iv; format: functional, Macaca fascicularis
[17] = tested on: Cynomolgus monkey; assay: Effect on bleeding time in cynomolgus monkey at 10 mg/kg, iv; format: functional, Macaca fascicularis
[18] = tested on: Cynomolgus monkey; assay: Effect on activated partial thromboplastin time in cynomolgus monkey citreated blood at 3 mg/kg, iv; format: functional, Macaca fascicularis
[19] = tested on: Cynomolgus monkey; assay: Effect on bleeding time in cynomolgus monkey at 3 mg/kg, iv; format: functional, Macaca fascicularis
[20] = Plasma concentration in ICR mouse at 100 mg/kg, po after 4 hrs by TF/FVIIa inhibition assay; format: ADME, organism-based; set-up: dose 100 mg/kg, route oral

Chain of Coagulation factor X (P00742 41-179 limits assumed): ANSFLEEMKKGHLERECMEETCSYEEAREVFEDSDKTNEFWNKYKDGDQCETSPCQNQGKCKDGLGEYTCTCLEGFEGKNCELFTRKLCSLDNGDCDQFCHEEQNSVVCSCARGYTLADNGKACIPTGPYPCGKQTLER
Chain of Coagulation factor X (P00742 235-488 limits assumed): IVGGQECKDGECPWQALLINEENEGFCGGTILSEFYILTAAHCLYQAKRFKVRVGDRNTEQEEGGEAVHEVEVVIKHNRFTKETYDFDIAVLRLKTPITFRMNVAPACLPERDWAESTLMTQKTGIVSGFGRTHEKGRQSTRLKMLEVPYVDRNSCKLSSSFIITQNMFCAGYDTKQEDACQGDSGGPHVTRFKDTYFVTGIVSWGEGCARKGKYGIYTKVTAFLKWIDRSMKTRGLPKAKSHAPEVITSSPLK

Work on `CC(C)CCNC(=O)c1ccc(-c2ccccc2C(=O)Nc2cccc(C(N)=O)c2)c(C(=O)O)c1` yielded an IC50 [1] of 19 µM.

Work on `CC(C)C[C@H](CO)NC(=O)c1ccc(-c2ccccc2C(=O)Nc2cccc(C(N)=O)c2)c(C(=O)O)c1` yielded an IC50 [1] of 191 µM.

For `CNc1ccc(-c2ccc(C(=O)N[C@@H](CC(C)C)C(=O)O)cc2C(=O)O)c(C(=O)Nc2cccc(C(N)=O)c2)c1`, the IC50 [1] was 0.15 µM, the IC50 [2] was > 200 µM and the Activity [3] was >300 µM. For the same molecule, the IC50 [4] was > 200 µM, the Activity [5] was 33 µM and the IC50 [6] was > 200 µM.

In the case of `CC(C)C[C@H](NC(=O)c1ccc(-c2ccc(NC3CCCCC3)cc2C(=O)Nc2cccc(C(N)=O)c2)c(C(=O)O)c1)C(N)=O`, the IC50 [1] is reported as 91 µM.

For `CC(C)CNC(=O)c1ccc(-c2ccccc2C(=O)Nc2ccc(C(=N)N)cc2)c(C(=O)O)c1`, the IC50 [1] was 0.089 µM, the IC50 [2] was > 200 µM and the Activity [3] was 4.3 µM. It also gave an IC50 [4] of 0.88 µM, a concentration at 2 h [7] of 160 ng/mL and an Activity [5] of 4.2 µM. It also gave a concentration at 0.5 h [8] of 300 ng/mL and an IC50 [6] of 4.8 µM.

With `CC(C)C[C@H](NC(=O)c1ccc(-c2ccccc2C(=O)Nc2cccc(C(N)=O)c2)c(C(=O)O)c1)C(N)=O` the IC50 [1] was 4.2 µM.

With `CCNc1ccc(-c2ccc(C(=O)N[C@@H](CC(C)C)C(N)=O)cc2C(=O)O)c(C(=O)Nc2cccc(C(N)=O)c2)c1` the IC50 [1] was 0.3 µM.

For `CC(C)C[C@H](NC(=O)c1ccc(-c2ccc(NC(C)C)cc2C(=O)Nc2cccc(C(N)=O)c2)c(C(=O)O)c1)C(N)=O`, the IC50 [1] was 0.86 µM.

`CCCCNc1ccc(-c2ccc(C(=O)N[C@@H](CC(C)C)C(N)=O)cc2C(=O)O)c(C(=O)Nc2cccc(C(N)=O)c2)c1` gave an IC50 [1] of 2.2 µM.

`CC(C)C[C@H](NC(=O)c1ccc(-c2ccccc2C(=O)Nc2cccc(C(N)=O)c2)c(C(=O)O)c1)C(=O)N(C)C` showed an IC50 [1] of 3.2 µM.

`CC(C)C[C@H](NC(=O)c1ccc(-c2ccccc2C(=O)Nc2cccc(C(N)=O)c2)c(C(=O)O)c1)C(=O)O` gave an IC50 [1] of 2.4 µM.

For `CNc1ccc(-c2ccc(C(=O)N[C@H](CO)CC(C)C)cc2C(=O)O)c(C(=O)Nc2ccc(CN)cc2)c1`, the IC50 [1] was 1.3 µM.

For `CNc1ccc(-c2ccc(C(=O)N[C@@H](CC(C)C)C(N)=O)cc2C(=O)O)c(C(=O)Nc2cccc(C(N)=O)c2)c1`, the concentration at 2 h [9] was 210 ng/mL, the IC50 [1] was 0.18 µM and the IC50 [2] was > 200 µM. The Activity [3] was >300 µM, the IC50 [4] was > 200 µM and the concentration at 0.5 h [10] was 280 ng/mL. The Activity [5] was 20 µM and the IC50 [6] was > 200 µM.

Molecule `CC(C)CNC(=O)c1ccc(-c2ccccc2C(=O)Nc2cccc(C(N)=O)c2)c(C(=O)O)c1` has an IC50 [1] of 19 µM.

For `CNc1ccc(-c2ccc(C(=O)NCC(C)C)cc2C(=O)O)c(C(=O)Nc2cccc(C(N)=O)c2)c1`, the IC50 [1] was 0.69 µM, the IC50 [2] was > 200 µM and the Activity [3] was >300 µM. The IC50 [4] was > 200 µM, the Activity [5] was 150 µM and the IC50 [6] was 4.8 µM.

With `CC(C)C[C@@H](CO)NC(=O)c1ccc(-c2ccccc2C(=O)Nc2cccc(C(N)=O)c2)c(C(=O)O)c1` the IC50 [1] was 8.5 µM.

For `CNc1ccc(-c2ccc(C(=O)N[C@H](CO)CC(C)C)cc2C(=O)O)c(C(=O)Nc2cccc(C(N)=O)c2)c1`, the IC50 [1] was 0.3 µM.

Molecule `CNc1ccc(-c2ccc(C(=O)N[C@@H](CC(C)C)C(N)=O)cc2C(=O)O)c(C(=O)Nc2ccc(CN)cc2)c1` has an APTT [11] of 35 s, an IC50 [1] of 0.59 µM and a PT [12] of 15.1 s. The IC50 [2] was > 200 µM, the Activity [3] was >300 µM and the PT [13] was 38.4 s. For the same molecule, the Activity [14] was 3.7 min, the IC50 [4] was > 200 µM and the Activity [5] was 47 µM. It also gave a concentration at 0.5 h [8] of 1800 ng/mL, a PT [15] of 24.5 s and an APTT [16] of 32.2 s. It also gave an Activity [17] of 2.7 min, an APTT [18] of 29.1 s and an Activity [19] of 3.5 min. For the same molecule, the concentration at 4 h [20] was 130 ng/mL and the IC50 [6] was > 200 µM.

In the case of `CNC(=O)[C@H](CC(C)C)NC(=O)c1ccc(-c2ccccc2C(=O)Nc2cccc(C(N)=O)c2)c(C(=O)O)c1`, the IC50 [1] is reported as 4.2 µM.

Source: ChEMBL document CHEMBL1144521, “Design, synthesis and biological activity of selective and orally available TF/FVIIa complex inhibitors containing non-amidine P1 ligands” (Bioorg Med Chem, 2007)
